pIC50: −log10 of the molar value.
Columns and labels:
cPLA2 = target: T1, cPLA2 (Homo sapiens, UniProt P47712); assay: cPLA2 enzyme assay using U937 cytosolic extract as enzyme source (release of [14C]-AA from phosphatidylcholine); format: biochemical; conditions: asterisk on compound number in Table I
T1 construct: using cPLA2 enzyme from the cytosolic extraction of U937 cells; endogenous in cells; host or cells: human U937 cells, cytosolic extract (N2 cavitation, 100,000 g supernatant)
T1 sequence (P47712 1-749): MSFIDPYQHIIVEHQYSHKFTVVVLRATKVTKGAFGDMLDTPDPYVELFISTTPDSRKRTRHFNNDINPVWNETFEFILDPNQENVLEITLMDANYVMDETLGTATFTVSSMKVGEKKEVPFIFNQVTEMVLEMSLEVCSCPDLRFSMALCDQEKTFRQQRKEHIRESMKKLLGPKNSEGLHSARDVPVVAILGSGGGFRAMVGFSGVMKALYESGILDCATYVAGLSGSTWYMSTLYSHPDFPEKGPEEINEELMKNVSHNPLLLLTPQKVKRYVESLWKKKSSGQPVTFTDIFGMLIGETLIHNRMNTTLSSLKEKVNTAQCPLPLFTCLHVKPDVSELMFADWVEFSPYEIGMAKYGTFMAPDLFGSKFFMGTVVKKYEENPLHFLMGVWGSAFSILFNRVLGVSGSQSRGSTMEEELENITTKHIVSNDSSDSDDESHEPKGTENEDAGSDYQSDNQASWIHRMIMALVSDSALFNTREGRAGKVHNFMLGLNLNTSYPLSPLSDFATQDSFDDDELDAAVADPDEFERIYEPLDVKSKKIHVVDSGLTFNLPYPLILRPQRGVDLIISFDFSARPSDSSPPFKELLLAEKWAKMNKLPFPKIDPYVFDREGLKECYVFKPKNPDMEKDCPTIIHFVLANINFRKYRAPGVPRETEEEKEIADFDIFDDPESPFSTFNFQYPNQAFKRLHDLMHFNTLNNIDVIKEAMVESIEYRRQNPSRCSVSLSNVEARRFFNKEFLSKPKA
Method: The PLA2 inhibitory properties of the compounds of the present invention were evaluated using the following assays. Inhibition of release of [^14C]-AA from phosphatidylcholine was measured according to standard methods. Human U937 cells were cultured in RPMI 1640 medium supplemented with 10% fetal bovine serum, penicillin, L-glutamine, and HEPES buffer. Cells were harvested and washed 3 times with extraction buffer (140 mM NaCl—5 mM KCl—2 mM EDTA—25 mM Tris pH 7.4) and resuspended at 1×10^8 cells/mL containing 100 μM leupeptin—50 μM pepstatin—1 mM PMSF. Cells were placed in a N2 cavitation bomb and put under pressure at 600 psi or maximum pressure for 20 minutes at 4° C. Cells were then released. The suspension was collected and centrifuged at 100,000 g for 60 minutes at 4° C. The resulting supernatant was collected and filtered through a 0.22 μm filter. Extract was then diluted to 50% glycerol and stored at −20° C.
For the preparation of substrate, 20 nmol of phosphatidylcholine-α-1-palmitoyl-2-arachidonyl-1-[^14C] and 10 nmol 1,2-dioleyl-glycerol were mixed together and dried under a N2 stream. A solution of 1 mL of 150 mM NaCl—50 mM HEPES pH 7.5 was added to the mixture. To reconstitute liposomes, the mixture was sonicated using a Branson 450 sonifier for 2 minutes at 50% duty cycle output level 3 on ice. After sonification, 40 μL of a 100 mg/mL BSA solution was added per mL.
The compounds were first dissolved in DMSO at 2 mM and serially diluted in DMSO by a factor of five for a total of 5 concentrations. These dilutions were further dissolved 60 fold in reaction buffer (150 mM NaCl—50 mM HEPES pH 7.5—1 mM CaCl2—1 mM 2-ME) containing approximately 5% of the U937 cytosolic extract to make up the preincubation mixture which was then incubated for 20 minutes at 37° C. Vehicle control using only DMSO with no compound was also made. To 30 μL of this Extract/compound mixture was added 10 μL of substrate. The 40 μL reaction mixture was incubated for 15 minutes at 37° C., and the reaction was stopped by adding 400 μL Dole's reagent [2-propanol/heptane/0.5 M H2SO4 (40:10:1) 10 μg/mL stearic acid]. This was followed by the addition of 240 μL heptane and 200 μL water. 280 μL of the top heptane layer was transferred to a tube containing […] silica gel with 200 μL heptane and mixed vigorously. Silica gel was then centrifuged at 1000 g for 1 minute. 400 μL of liquid was transferred to scintillation vial along with 4 mL of Beckman Ready Safe scintillation cocktail and mixed. Radioactivity was determined in a Beckman scintillation counter.
The compounds of the present invention were assayed for cPLA2 activity using cPLA2 enzyme from the cytosolic extraction of U937 cells (all procedures carried out on ice). […]

| pIC50 (cPLA2) | melting point | SMILES |
| --- | --- | --- |
| > 7.00 |  | CC(C)Oc1ccc(C(c2ccccc2)c2cc(O)nc(-c3ccccc3)n2)cc1 (centres unmarked) [Compound 22, 6-((4-Isopropoxy)phenyl,phenyl)methyl-2-phenyl-pyrimidine-4-ol] |
| > 7.00 |  | CC(C)Oc1ccc(C(c2ccccc2)c2cc(O)nc(-c3ccccc3)n2)cc1 (centres unmarked) [Compound 21, 6-((4-Isopropoxy)phenyl,phenyl)methyl-2-phenyl-pyrimidine-4-ol] |
| > 7.00 | 149 to 154 °C | CCCc1ccc(C(c2ccccc2)c2cc(O)nc(-c3ccccc3)n2)cc1 (centres unmarked) [Compound 18, 6-((4-n-Propyl)phenyl,phenyl)methyl-2-phenyl-pyrimidine-4-ol] |
| > 7.00 |  | CCCc1ccc(C(c2ccccc2)c2cc(O)nc(-c3ccccc3)n2)cc1 (centres unmarked) [Compound 19, 6-((4-Propyl)phenyl,phenyl)methyl-2-phenyl-pyrimidine-4-ol] |
